In paper PMC8359193, “Summary of reference chemicals evaluated by the fish short‐term reproduction assay, OECD TG229, using Japanese Medaka, Oryzias latipes” (Journal of Applied Toxicology, 2021):
“Also recorded” adds a separate entry of the source.

What was measured:
medaka ARβ (mARβ) = medaka ARβ (mARβ) (Oryzias latipes, UniProt D1MV73); experiment: Medaka ARβ reporter gene assay (RGA), agonist assay, HepG2 cells; format: cell-based, Japanese medaka (Oryzias latipes)
Description: To support interpretation of the biological effects observed in the FSTRA studies, in vitro RGAs using medaka Esr1 (mEsr1) and medaka ARβ (mARβ) were performed for the 16 test chemicals.
For the assays, human liver cancer cell line, HepG2, was used as the host cells, and mARβ/pcDNA3.1, MMTV‐Luc, and pRL‐TK‐Rlu were used as mARβ expression vector, reporter vector, and internal control vector, respectively.
Effect concentrations, that is, EC50 (a half maximal effective concentration) in the agonist assay and IC50 (a half maximal inhibitory concentration) in the antagonist assay, were estimated by nonlinear curve fitting (e.g., three parameters logistic regression curve) using GraphPad Prism (GraphPad Software Inc., La Jolla, CA, USA).

[1] = system: Japanese medaka (Oryzias latipes); experiment: Fish short-term reproduction assay (FSTRA, OECD TG229), 21-day flow-through exposure; conditions: for GSI Female / HSI Female / Length Female / Weight Female / GSI Male / HSI Male / Length Male / Weight Male: at completion of exposure; for Fertility rate (%) / Mortality (%) Female / Mortality (%) Male / Number of fertilized eggs / Number of total eggs / SSC Female / SSC Male / VTG (ng/mg of liver) Female / VTG (ng/mg of liver) Male: 21 days; for effect on fecundity (number of total eggs), in words: within the test concentrations
Summary of the method: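 Japanese medaka (NIES-R strain, 16 ± 2 weeks old) were exposed in flow-through tanks for 3 weeks, three males and three females per tank, four replicate tanks per group, with a dilution water control. Concentrations were spaced by a factor of 2–5. Eggs were collected daily and counted as fertilized or unfertilized.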

medaka ARβ (mARβ), sequence (D1MV73 entry or part of it): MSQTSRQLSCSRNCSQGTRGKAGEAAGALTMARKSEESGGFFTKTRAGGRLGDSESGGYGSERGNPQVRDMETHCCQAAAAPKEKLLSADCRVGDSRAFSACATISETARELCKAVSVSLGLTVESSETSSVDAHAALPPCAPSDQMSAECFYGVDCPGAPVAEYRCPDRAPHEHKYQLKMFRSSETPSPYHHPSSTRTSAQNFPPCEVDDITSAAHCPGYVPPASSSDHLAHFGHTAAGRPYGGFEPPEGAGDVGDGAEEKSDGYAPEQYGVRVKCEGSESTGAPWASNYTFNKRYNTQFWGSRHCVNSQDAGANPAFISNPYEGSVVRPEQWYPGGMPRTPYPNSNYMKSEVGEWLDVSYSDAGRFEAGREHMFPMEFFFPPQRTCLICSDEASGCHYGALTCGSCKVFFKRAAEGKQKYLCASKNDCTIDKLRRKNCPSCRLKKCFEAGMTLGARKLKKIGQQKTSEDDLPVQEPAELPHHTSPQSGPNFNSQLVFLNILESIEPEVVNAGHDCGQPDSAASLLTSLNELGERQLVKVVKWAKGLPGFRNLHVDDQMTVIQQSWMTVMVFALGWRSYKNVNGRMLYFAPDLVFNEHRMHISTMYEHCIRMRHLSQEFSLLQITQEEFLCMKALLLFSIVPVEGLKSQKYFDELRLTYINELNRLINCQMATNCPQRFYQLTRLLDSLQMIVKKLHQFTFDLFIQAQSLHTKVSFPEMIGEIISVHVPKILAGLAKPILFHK

CCCCCCCCCCCCOS(=O)(=O)[O-].[Na+] [SDS, Sodium dodecyl sulfate]
mARβ agonist activity (in words) (medaka ARβ (mARβ)): no significant increase in hold activation; also recorded: neithEsr agonistic nor antagonistic activity
EC50 (medaka ARβ (mARβ); mARβ RGA agonist assay, ND = no significant response even at the highest assay concentration (in parentheses)): > 100 µM
effect on fertility rate, in words ([1]; 21-day exposure): significant decrease; also recorded: significant reduction
effect on male hepatic VTG, in words ([1]; 21-day exposure): no VTG induction
GSI Female ([1]; measured conc. 0.748 mg/L): 10.9%
HSI Female ([1]; measured conc. 0.748 mg/L): 4.8%
Length Female ([1]; measured conc. 0.748 mg/L): 35.6 mm
Weight Female ([1]; measured conc. 0.748 mg/L): 547 mg
GSI Female ([1]; measured conc. 2.46 mg/L): 10.8%
HSI Female ([1]; measured conc. 2.46 mg/L): 4.8%
Length Female ([1]; measured conc. 2.46 mg/L): 36.6 mm
Weight Female ([1]; measured conc. 2.46 mg/L): 573 mg
GSI Female ([1]; measured conc. 10.0 mg/L): 11.0%
HSI Female ([1]; measured conc. 10.0 mg/L): 4.9%
Length Female ([1]; measured conc. 10.0 mg/L): 36.1 mm
Weight Female ([1]; measured conc. 10.0 mg/L): 573 mg
GSI Male ([1]; measured conc. 0.748 mg/L): 0.88%
HSI Male ([1]; measured conc. 0.748 mg/L): 2.3%
Length Male ([1]; measured conc. 0.748 mg/L): 36.7 mm
Weight Male ([1]; measured conc. 0.748 mg/L): 544 mg
GSI Male ([1]; measured conc. 2.46 mg/L): 0.91%
HSI Male ([1]; measured conc. 2.46 mg/L): 2.0%
Length Male ([1]; measured conc. 2.46 mg/L): 36.7 mm
Weight Male ([1]; measured conc. 2.46 mg/L): 519 mg
GSI Male ([1]; measured conc. 10.0 mg/L): 1.17%
HSI Male ([1]; measured conc. 10.0 mg/L): 2.2%
Length Male ([1]; measured conc. 10.0 mg/L): 35.6 mm
Weight Male ([1]; measured conc. 10.0 mg/L): 493 mg
Fertility rate (%) ([1]; measured conc. 0.748 mg/L): 95%
Mortality (%) Female ([1]; measured conc. 0.748 mg/L): 0%
Mortality (%) Male ([1]; measured conc. 0.748 mg/L): 0%
Number of fertilized eggs ([1]; measured conc. 0.748 mg/L): 27
Number of total eggs ([1]; measured conc. 0.748 mg/L): 29 ± 3.9 /female/day
SSC Female ([1]; measured conc. 0.748 mg/L): 0 ± 0
SSC Male ([1]; measured conc. 0.748 mg/L): 107 ± 8.7
VTG (ng/mg of liver) Female ([1]; measured conc. 0.748 mg/L): 3,780 ± 305 ng/mg of liver
VTG (ng/mg of liver) Male ([1]; measured conc. 0.748 mg/L): 3.0 ± 4.2 ng/mg of liver
Fertility rate (%) ([1]; measured conc. 2.46 mg/L): 93%
Mortality (%) Female ([1]; measured conc. 2.46 mg/L): 0%
Mortality (%) Male ([1]; measured conc. 2.46 mg/L): 0%
Number of fertilized eggs ([1]; measured conc. 2.46 mg/L): 27
Number of total eggs ([1]; measured conc. 2.46 mg/L): 30 ± 2.7 /female/day
SSC Female ([1]; measured conc. 2.46 mg/L): 0 ± 0
SSC Male ([1]; measured conc. 2.46 mg/L): 112 ± 11
VTG (ng/mg of liver) Female ([1]; measured conc. 2.46 mg/L): 4,930 ± 189 ng/mg of liver
VTG (ng/mg of liver) Male ([1]; measured conc. 2.46 mg/L): 6.6 ± 11 ng/mg of liver
Fertility rate (%) ([1]; measured conc. 10.0 mg/L): 85%
Mortality (%) Female ([1]; measured conc. 10.0 mg/L): 0%
Mortality (%) Male ([1]; measured conc. 10.0 mg/L): 0%
Number of fertilized eggs ([1]; measured conc. 10.0 mg/L): 25
Number of total eggs ([1]; measured conc. 10.0 mg/L): 30 ± 1.8 /female/day
SSC Female ([1]; measured conc. 10.0 mg/L): 0 ± 0
SSC Male ([1]; measured conc. 10.0 mg/L): 110 ± 3.5
VTG (ng/mg of liver) Female ([1]; measured conc. 10.0 mg/L): 4,520 ± 906 ng/mg of liver
VTG (ng/mg of liver) Male ([1]; measured conc. 10.0 mg/L): 1.0 ± 0.5 ng/mg of liver
effect on fecundity (number of total eggs), in words ([1]; 21-day exposure): no significant effect

C#C[C@]1(O)CC[C@H]2[C@@H]3CCC4=CC(=O)CC[C@@H]4[C@H]3CC[C@@]21CC [LNG, Levonorgestrel]
mARβ agonist activity (in words) (medaka ARβ (mARβ)): potent AR agonists
LOEC on female SSC (papillary process formation on anal fin) ([1]; 21-day exposure, measured conc.): 42.2 ng/L
concentration at which female hepatic VTG was significantly decreased ([1]; highest concentration, 21-day exposure): 226 ng/L
GSI Male ([1]; measured conc. 7.3 ng/L): 0.82%
HSI Male ([1]; measured conc. 7.3 ng/L): 2.0%
Length Male ([1]; measured conc. 7.3 ng/L): 38.4 mm
Weight Male ([1]; measured conc. 7.3 ng/L): 610 mg
GSI Male ([1]; measured conc. 42.2 ng/L): 0.89%
HSI Male ([1]; measured conc. 42.2 ng/L): 2.2%
Length Male ([1]; measured conc. 42.2 ng/L): 38.8 mm
Weight Male ([1]; measured conc. 42.2 ng/L): 691 mg
GSI Male ([1]; measured conc. 226 ng/L): 0.76%
HSI Male ([1]; measured conc. 226 ng/L): 2.1%
Length Male ([1]; measured conc. 226 ng/L): 38.3 mm
Weight Male ([1]; measured conc. 226 ng/L): 610 mg
Fertility rate (%) ([1]; measured conc. 7.3 ng/L): 87%
Mortality (%) Female ([1]; measured conc. 7.3 ng/L): 0%
Mortality (%) Male ([1]; measured conc. 7.3 ng/L): 0%
Number of fertilized eggs ([1]; measured conc. 7.3 ng/L): 25
Number of total eggs ([1]; measured conc. 7.3 ng/L): 29 ± 5.8 /female/day
SSC Female ([1]; measured conc. 7.3 ng/L): 0 ± 0
SSC Male ([1]; measured conc. 7.3 ng/L): 112 ± 4.5
VTG (ng/mg of liver) Female ([1]; measured conc. 7.3 ng/L): 2,370 ± 207 ng/mg of liver
VTG (ng/mg of liver) Male ([1]; measured conc. 7.3 ng/L): 2.8 ± 4.1 ng/mg of liver
Fertility rate (%) ([1]; measured conc. 42.2 ng/L): 82%
Mortality (%) Female ([1]; measured conc. 42.2 ng/L): 8%
Mortality (%) Male ([1]; measured conc. 42.2 ng/L): 0%
Number of fertilized eggs ([1]; measured conc. 42.2 ng/L): 17
Number of total eggs ([1]; measured conc. 42.2 ng/L): 21 ± 3.9 /female/day
SSC Female ([1]; measured conc. 42.2 ng/L): 44 ± 10
SSC Male ([1]; measured conc. 42.2 ng/L): 121 ± 8.6
VTG (ng/mg of liver) Female ([1]; measured conc. 42.2 ng/L): 2,350 ± 673 ng/mg of liver
VTG (ng/mg of liver) Male ([1]; measured conc. 42.2 ng/L): 0.8 ± 0.3 ng/mg of liver
Fertility rate (%) ([1]; measured conc. 226 ng/L): 82%
Mortality (%) Female ([1]; measured conc. 226 ng/L): 0%
Mortality (%) Male ([1]; measured conc. 226 ng/L): 0%
Number of fertilized eggs ([1]; measured conc. 226 ng/L): 5.1
Number of total eggs ([1]; measured conc. 226 ng/L): 5.9 ± 5.2 /female/day
SSC Female ([1]; measured conc. 226 ng/L): 83 ± 5.4
SSC Male ([1]; measured conc. 226 ng/L): 116 ± 10
VTG (ng/mg of liver) Female ([1]; measured conc. 226 ng/L): 1,120 ± 561 ng/mg of liver
VTG (ng/mg of liver) Male ([1]; measured conc. 226 ng/L): 0.6 ± 0.1 ng/mg of liver
effect on fecundity (number of total eggs), in words ([1]; 21-day exposure): significant difference from the control
